From the OligoGym collection
“And” between values parts separate entries of the source, which are not always exact repeats. Equal values may be shown once. HELM strings list units from the 5' end as sugar, base in round brackets, then linkage (d deoxyribose, r ribose, m 2'-O-methyl, p phosphodiester). Methylation of C is not given here. [moe] = 2'-O-(2-methoxyethyl) (MOE); [cEt] = constrained ethyl (cEt); [sp] = phosphorothioate linkage

Target: HBV
Details: ASO

Substance	target mRNA inhibition (HepG2, 0.07 µM)	also measured
RNA1{[moe](G)[sp].[cEt](C)[sp].[cEt](A)[sp].d(G)[sp].d(T)[sp].d(A)[sp].d(T)[sp].d(G)[sp].d(G)[sp].d(A)[sp].d(T)[sp].d(C)[sp].d(G)[sp].[cEt](G)[sp].[cEt](C)[sp].[moe](A)}$$$$V2.0	77% and 75%	–
RNA1{[moe](G)[sp].[cEt](G)[sp].[cEt](A)[sp].d(G)[sp].d(T)[sp].d(T)[sp].d(C)[sp].d(C)[sp].d(G)[sp].d(C)[sp].d(A)[sp].d(G)[sp].d(T)[sp].[cEt](A)[sp].[cEt](T)[sp].[moe](G)}$$$$V2.0	90% and 76%	target mRNA inhibition (HepG2, 0.0092593 µM): 13%; target mRNA inhibition (HepG2, 0.0277778 µM): 42%; target mRNA inhibition (HepG2, 0.0833333 µM): 74%; target mRNA inhibition (HepG2, 0.25 µM): 89%
RNA1{[moe](G)[sp].[cEt](T)[sp].[cEt](G)[sp].d(C)[sp].d(A)[sp].d(G)[sp].d(A)[sp].d(G)[sp].d(G)[sp].d(T)[sp].d(G)[sp].d(A)[sp].d(A)[sp].[cEt](G)[sp].[cEt](C)[sp].[moe](G)}$$$$V2.0	67% and 70%	–
RNA1{[moe](G)[sp].[moe](A)[sp].[moe](A)[sp].[moe](C)[sp].[moe](C)[sp].d(A)[sp].d(C)[sp].d(T)[sp].d(G)[sp].d(A)[sp].d(A)[sp].d(C)[sp].d(A)[sp].d(A)[sp].[moe](A)[sp].[moe](T)}$$$$V2.0	34% and 36%	–
RNA1{[moe](G)[sp].[moe](A)[sp].[moe](A)[sp].[moe](C)[sp].[moe](T)[sp].d(G)[sp].d(G)[sp].d(A)[sp].d(G)[sp].d(C)[sp].d(C)[sp].d(A)[sp].d(C)[sp].d(C)[sp].[moe](A)[sp].[moe](G)[sp].[moe](C)}$$$$V2.0	41% and 50%	–
RNA1{[moe](G)[sp].[moe](A)[sp].[moe](A)[sp].[moe](C)[sp].d(C)[sp].d(A)[sp].d(C)[sp].d(T)[sp].d(G)[sp].d(A)[sp].d(A)[sp].d(C)[sp].d(A)[sp].[moe](A)[sp].[moe](A)[sp].[moe](T)}$$$$V2.0	34% and 23%	–
RNA1{[moe](G)[sp].[moe](A)[sp].[moe](A)[sp].[moe](C)[sp].d(T)[sp].d(G)[sp].d(G)[sp].d(A)[sp].d(G)[sp].d(C)[sp].d(C)[sp].d(A)[sp].d(C)[sp].[moe](C)[sp].[moe](A)[sp].[moe](G)[sp].[moe](C)}$$$$V2.0	69% and 49%	–
RNA1{[moe](G)[sp].[moe](A)[sp].[moe](A)[sp].d(G)[sp].d(T)[sp].d(C)[sp].d(C)[sp].d(A)[sp].d(C)[sp].d(C)[sp].d(A)[sp].d(C)[sp].[moe](G)[sp].[moe](A)[sp].[moe](G)[sp].[moe](T)[sp].[moe](C)}$$$$V2.0	33% and 23%	–
RNA1{[moe](G)[sp].[moe](A)[sp].[moe](G)[sp].[moe](A)[sp].[moe](A)[sp].[moe](G)[sp].d(T)[sp].d(C)[sp].d(C)[sp].d(A)[sp].d(C)[sp].d(C)[sp].d(A)[sp].d(C)[sp].d(G)[sp].[moe](A)[sp].[moe](G)}$$$$V2.0	27% and 23%	–
RNA1{[moe](G)[sp].[moe](A)[sp].[moe](G)[sp].[moe](A)[sp].d(A)[sp].d(G)[sp].d(T)[sp].d(C)[sp].d(C)[sp].d(A)[sp].d(C)[sp].d(C)[sp].d(A)[sp].[moe](C)[sp].[moe](G)[sp].[moe](A)[sp].[moe](G)}$$$$V2.0	42% and 29%	–
RNA1{[moe](G)[sp].[moe](A)[sp].[moe](G)[sp].[moe](G)[sp].[moe](C)[sp].d(A)[sp].d(T)[sp].d(A)[sp].d(G)[sp].d(C)[sp].d(A)[sp].d(G)[sp].d(C)[sp].d(A)[sp].[moe](G)[sp].[moe](G)}$$$$V2.0	44% and 39%	–
RNA1{[moe](G)[sp].[moe](A)[sp].[moe](G)[sp].[moe](G)[sp].[moe](T)[sp].d(G)[sp].d(A)[sp].d(A)[sp].d(G)[sp].d(C)[sp].d(G)[sp].d(A)[sp].d(A)[sp].d(G)[sp].[moe](T)[sp].[moe](G)}$$$$V2.0	46% and 39%	–
RNA1{[moe](G)[sp].[moe](A)[sp].[moe](G)[sp].d(G)[sp].d(C)[sp].d(A)[sp].d(T)[sp].d(A)[sp].d(G)[sp].d(C)[sp].d(A)[sp].d(G)[sp].[moe](C)[sp].[moe](A)[sp].[moe](G)[sp].[moe](G)}$$$$V2.0	58% and 57%	–
RNA1{[moe](G)[sp].[moe](A)[sp].[moe](G)[sp].d(G)[sp].d(T)[sp].d(G)[sp].d(A)[sp].d(A)[sp].d(G)[sp].d(C)[sp].d(G)[sp].d(A)[sp].[moe](A)[sp].[moe](G)[sp].[moe](T)[sp].[moe](G)[sp].[moe](C)}$$$$V2.0	81% and 71%	–
RNA1{[moe](G)[sp].[moe](A)[sp].[moe](G)[sp].d(T)[sp].d(T)[sp].d(C)[sp].d(C)[sp].d(G)[sp].d(C)[sp].d(A)[sp].d(G)[sp].d(T)[sp].[moe](A)[sp].[moe](T)[sp].[moe](G)[sp].[moe](G)}$$$$V2.0	54% and 30%	–
RNA1{[moe](G)[sp].[moe](A)[sp].[moe](T)[sp].[moe](G)[sp].[moe](A)[sp].d(G)[sp].d(G)[sp].d(C)[sp].d(A)[sp].d(T)[sp].d(A)[sp].d(G)[sp].d(C)[sp].d(A)[sp].[moe](G)[sp].[moe](C)[sp].[moe](A)}$$$$V2.0	46% and 21%	–

Substance	target mRNA inhibition (HepG2, 0.07 µM)	also measured
RNA1{[moe](G)[sp].[moe](C)[sp].[moe](A)[sp].[moe](C)[sp].[moe](T)[sp].[moe](A)[sp].d(G)[sp].d(T)[sp].d(A)[sp].d(A)[sp].d(A)[sp].d(C)[sp].d(T)[sp].d(G)[sp].d(A)[sp].[moe](G)[sp].[moe](C)}$$$$V2.0	74% and 65%	–
RNA1{[moe](G)[sp].[moe](C)[sp].[moe](A)[sp].[moe](C)[sp].[moe](T)[sp].d(A)[sp].d(G)[sp].d(T)[sp].d(A)[sp].d(A)[sp].d(A)[sp].d(C)[sp].d(T)[sp].d(G)[sp].[moe](A)[sp].[moe](G)[sp].[moe](C)}$$$$V2.0	58% and 63%	–
RNA1{[moe](G)[sp].[moe](C)[sp].[moe](A)[sp].[moe](C)[sp].d(T)[sp].d(A)[sp].d(G)[sp].d(T)[sp].d(A)[sp].d(A)[sp].d(A)[sp].d(C)[sp].d(T)[sp].[moe](G)[sp].[moe](A)[sp].[moe](G)}$$$$V2.0	52% and 53%	–
RNA1{[moe](G)[sp].[moe](C)[sp].[moe](A)[sp].[moe](T)[sp].[moe](A)[sp].d(G)[sp].d(C)[sp].d(A)[sp].d(G)[sp].d(C)[sp].d(A)[sp].d(G)[sp].d(G)[sp].d(A)[sp].[moe](T)[sp].[moe](G)}$$$$V2.0	57% and 54%	–
RNA1{[moe](G)[sp].[moe](C)[sp].[moe](A)[sp].d(G)[sp].d(A)[sp].d(G)[sp].d(G)[sp].d(T)[sp].d(G)[sp].d(A)[sp].d(A)[sp].d(G)[sp].d(C)[sp].[cEt](G)[sp].[cEt](A)[sp].[cEt](A)}$$$$V2.0	71% and 50%	–
RNA1{[moe](G)[sp].[moe](C)[sp].d(A)[sp].d(G)[sp].d(A)[sp].d(G)[sp].d(G)[sp].d(T)[sp].d(G)[sp].d(A)[sp].d(A)[sp].[moe](G)[sp].[moe](C)[sp].[moe](G)[sp].[moe](A)[sp].[moe](A)[sp].[moe](G)}$$$$V2.0	20% and 40%	–
RNA1{[moe](G)[sp].[moe](C)[sp].d(A)[sp].d(G)[sp].d(A)[sp].d(G)[sp].d(G)[sp].d(T)[sp].d(G)[sp].d(A)[sp].d(A)[sp].[moe](G)[sp].[moe](C)[sp].[moe](G)[sp].[moe](A)[sp].[moe](A)}$$$$V2.0	58% and 57%	–
RNA1{[moe](G)[sp].[moe](C)[sp].d(A)[sp].d(G)[sp].d(T)[sp].d(A)[sp].d(T)[sp].d(G)[sp].d(G)[sp].d(A)[sp].d(T)[sp].[moe](C)[sp].[moe](G)[sp].[moe](G)[sp].[moe](C)[sp].[moe](A)}$$$$V2.0	76% and 73%	target mRNA inhibition (HepG2, 0.0092593 µM): 2%; target mRNA inhibition (HepG2, 0.0277778 µM): 25%; target mRNA inhibition (HepG2, 0.0833333 µM): 44%; target mRNA inhibition (HepG2, 0.25 µM): 77%
RNA1{[moe](G)[sp].[moe](G)[sp].[moe](A)[sp].[moe](G)[sp].[moe](T)[sp].d(T)[sp].d(C)[sp].d(C)[sp].d(G)[sp].d(C)[sp].d(A)[sp].d(G)[sp].d(T)[sp].d(A)[sp].[moe](T)[sp].[moe](G)}$$$$V2.0	74% and 50%	–
RNA1{[moe](G)[sp].[moe](G)[sp].[moe](C)[sp].[moe](A)[sp].[moe](T)[sp].d(A)[sp].d(G)[sp].d(C)[sp].d(A)[sp].d(G)[sp].d(C)[sp].d(A)[sp].d(G)[sp].d(G)[sp].[moe](A)[sp].[moe](T)[sp].[moe](G)}$$$$V2.0	0%	–
RNA1{[moe](G)[sp].[moe](G)[sp].[moe](C)[sp].d(A)[sp].d(T)[sp].d(A)[sp].d(G)[sp].d(C)[sp].d(A)[sp].d(G)[sp].d(C)[sp].d(A)[sp].[moe](G)[sp].[moe](G)[sp].[moe](A)[sp].[moe](T)[sp].[moe](G)}$$$$V2.0	68% and 66%	target mRNA inhibition (HepG2, 0.0092593 µM): 16%; target mRNA inhibition (HepG2, 0.0277778 µM): 11%; target mRNA inhibition (HepG2, 0.0833333 µM): 40%; target mRNA inhibition (HepG2, 0.25 µM): 66%
RNA1{[moe](G)[sp].[moe](G)[sp].[moe](T)[sp].[moe](G)[sp].[moe](A)[sp].d(A)[sp].d(G)[sp].d(C)[sp].d(G)[sp].d(A)[sp].d(A)[sp].d(G)[sp].d(T)[sp].d(G)[sp].[moe](C)[sp].[moe](A)}$$$$V2.0	51% and 46%	–
RNA1{[moe](G)[sp].[moe](G)[sp].d(T)[sp].d(G)[sp].d(A)[sp].d(A)[sp].d(G)[sp].d(C)[sp].d(G)[sp].d(A)[sp].d(A)[sp].[moe](G)[sp].[moe](T)[sp].[moe](G)[sp].[moe](C)[sp].[moe](A)[sp].[moe](C)}$$$$V2.0	77% and 71%	–
RNA1{[moe](G)[sp].[moe](G)[sp].d(T)[sp].d(G)[sp].d(A)[sp].d(A)[sp].d(G)[sp].d(C)[sp].d(G)[sp].d(A)[sp].d(A)[sp].[moe](G)[sp].[moe](T)[sp].[moe](G)[sp].[moe](C)[sp].[moe](A)}$$$$V2.0	65% and 62%	–
RNA1{[moe](G)[sp].[moe](T)[sp].[moe](G)[sp].[moe](C)[sp].d(A)[sp].d(G)[sp].d(A)[sp].d(G)[sp].d(G)[sp].d(T)[sp].d(G)[sp].d(A)[sp].d(A)[sp].[moe](G)[sp].[moe](C)[sp].[moe](G)[sp].[moe](A)}$$$$V2.0	62% and 54%	–
